Calls of active or inactive are those of the source. The calls are words filed in the database; no cut-off is given here.

Results on one molecule are retold here after ChEMBL document CHEMBL5620433, “Design and synthesis of new 1,2,3-triazoles derived from eugenol and analogues with in vitro and in vivo activity against Trypanosoma cruzi” (Eur J Med Chem, 2023).

The subject of data set [1] is Trypanosoma cruzi. Kind of data set: Antitrypanosomal activity against epimastigote form of Trypanosoma cruzi Y assessed as inhibition of parasite proliferation incubated for 72 hrs by resazurin dye based analysis. Type of data set: functional, organism-based. In general terms: The colour change of resazurin is a common sign of viable cells or microbes.
Data set [2] is described as follows: Cytotoxicity against rat H9c2 cells assessed as reduction in cell viability measured after 72 hrs by resazurin due based analysis. Conditions: rat, H9c2 cells. Type of data set: toxicity.
Data set [3] in a line: Selectivity index, ratio of CC50 for cytotoxicity against rat H9c2 cells to IC50 for antitrypanosomal activity against epimastigote form of Trypanosoma cruzi Y. Type of data set: toxicity, cell-based. As to conditions: read-out: Ratio IC50.
Data set [4] relates to Trypanosoma cruzi. Briefly: Antitrypanosomal activity against trypomastigote form of Trypanosoma cruzi Y assessed as inhibition of parasite viability incubated for 24 hrs by light microscopy. The class given is functional, organism-based.
For data set [5], the target named is Cruzipain (Trypanosoma cruzi) (UniProt P25779). Kind of data set: Inhibition of recombinant Trypanosoma cruzi Cruzain using Z-FR-AMC as substrate at 100 uM preincubated with enzyme for 10 mins and measured for 5 mins by fluorescence based analysis. Conditions: time 15.0 min.
The target is the same in data set [6]. Kind of data set: Inhibition of recombinant Trypanosoma cruzi Cruzain using Z-FR-AMC as substrate at 100 uM measured for 5 mins by fluorescence based analysis.
Data set [7] is described as follows: Toxicity in po dosed Swiss mouse infected with trypomastigote form of Trypanosoma cruzi Y assessed as fur alteration administered via gavage for 7 days from day 5 post-infection and measured on day 13 post-infection. As to conditions: in vivo, 192 h, time 8 day. The class given is organism-based.
Data set [8] is described as follows: Toxicity in po dosed Swiss mouse infected with trypomastigote form of Trypanosoma cruzi Y assessed as diarrhea administered via gavage for 7 days from day 5 post-infection and measured on day 13 post-infection. Type of data set: organism-based. Conditions: in vivo, 192 h, time 8 day.
Data set [9] is described as follows: Toxicity in po dosed Swiss mouse infected with trypomastigote form of Trypanosoma cruzi Y assessed as apathy administered via gavage for 7 days from day 5 post-infection and measured on day 13 post-infection. Conditions: in vivo, 192 h, time 8 day. Type of data set: organism-based.
The nature of data set [10]: Toxicity in po dosed Swiss mouse infected with trypomastigote form of Trypanosoma cruzi Y assessed as mortality administered via gavage for 7 days from day 5 post-infection and measured on day 13 post-infection. Conditions: in vivo, 192 h, time 8 day. The class given is organism-based.
Data set [11] can be described thus: Toxicity in Swiss mouse infected with trypomastigote form of Trypanosoma cruzi Y assessed as increase in weight gain at 10 to 100 mg/kg, po administered via gavage for 7 days from day 5 post-infection. The class given is organism-based. Conditions: in vivo, 168 h, dose 10-100 mg/kg, time 7 day.
Data set [12] in a line: Toxicity in Swiss mouse infected with trypomastigote form of Trypanosoma cruzi Y assessed as collateral effects at 10 to 100 mg/kg, po administered via gavage for 7 days from day 5 post-infection. Type of data set: organism-based. Conditions: in vivo, 168 h, dose 10-100 mg/kg, time 7 day.
Data set [13] is described as follows: Hepatotoxicity in Swiss mouse infected with trypomastigote form of Trypanosoma cruzi Y assessed as plasma alanine aminotransferase level at 50 to 100 mg/kg, po administered via gavage for 7 days from day 5 post-infection by spectrophotometry. Conditions: in vivo, 168 h, dose 50-100 mg/kg, time 7 day. Type of data set: toxicity, organism-based.
Data set [14] can be described thus: Hepatotoxicity in Swiss mouse infected with trypomastigote form of Trypanosoma cruzi Y assessed as plasma aspartate aminotransferase level at 50 to 100 mg/kg, po administered via gavage for 7 days from day 5 post-infection by spectrophotometry. The class given is toxicity, organism-based. Conditions: in vivo, 168 h, dose 50-100 mg/kg, time 7 day.
Data set [15] deals with Trypanosoma cruzi. Briefly: Anti-trypanosomal activity against trypomastigote form of Trypanosoma cruzi Y infected in Swiss mouse assessed as reduction in parasitemia at 50 mg/kg, po administered via gavage for 7 days from day 5 post-infection. Type of data set: functional, organism-based. As to conditions: time 7.0 day.
Data set [16] has as its system Mus musculus. Briefly: Reduction in plasma total IgG level in Swiss mouse infected with trypomastigote form of Trypanosoma cruzi Y at 100 mg/kg, po administered via gavage for 7 days from day 5 post-infection by ELISA. As to conditions: time 7.0 day. The class given is functional, organism-based.
In data set [17] the test system is Mus musculus. Kind of data set: Reduction in plasma total IgG level in Swiss mouse infected with trypomastigote form of Trypanosoma cruzi Y at 10 to 50 mg/kg, po administered via gavage for 7 days from day 5 post-infection by ELISA. Type of data set: functional, organism-based. As to conditions: dose 10-50 mg/kg, time 7.0 day. For orientation: An ELISA detects its analyte on a solid surface through an enzyme-linked reagent.

Data set [18] relates to Mus musculus. Briefly: Reduction in plasma IgG1 level in Swiss mouse infected with trypomastigote form of Trypanosoma cruzi Y at 100 mg/kg, po administered via gavage for 7 days from day 5 post-infection by ELISA. Conditions: time 7.0 day. Type of data set: functional, organism-based.
The test system of data set [19] is Mus musculus. Kind of data set: Reduction in plasma IgG2 level in Swiss mouse infected with trypomastigote form of Trypanosoma cruzi Y at 100 mg/kg, po administered via gavage for 7 days from day 5 post-infection by ELISA. The class given is functional, organism-based. Conditions: time 7.0 day.
Data set [20] has as its system Mus musculus. Briefly: Reduction in cardiac inflammation in Swiss mouse infected with trypomastigote form of Trypanosoma cruzi Y assessed as reduction in inflammatory nuclei at 10 to 100 mg/kg, po administered via gavage for 7 days from day 5 post-infection by Hematoxylin-Eosin staining based microscopy. The class given is functional, organism-based. Conditions: dose 10-100 mg/kg, time 7.0 day.

Data set [21] deals with Mus musculus. Briefly: Reduction in plasma IgG1 level in Swiss mouse infected with trypomastigote form of Trypanosoma cruzi Y at 10 to 50 mg/kg, po administered via gavage for 7 days from day 5 post-infection by ELISA. The class given is functional, organism-based. Conditions: dose 10-50 mg/kg, time 7.0 day.
The subject of data set [22] is Mus musculus. Kind of data set: Reduction in plasma IgG2 level in Swiss mouse infected with trypomastigote form of Trypanosoma cruzi Y at 10 to 50 mg/kg, po administered via gavage for 7 days from day 5 post-infection by ELISA. Conditions: dose 10-50 mg/kg, time 7.0 day. The class given is functional, organism-based.
A short description of data set [23]: Genotoxicity in rat H9c2 cells assessed as induction of DNA damage at 10 uM incubated for 72 hrs by gel electrophoresis analysis. Type of data set: toxicity, cell-based. As to conditions: h9c2, 72 h.
The test system of data set [24] is Trypanosoma cruzi. Briefly: Anti-trypanosomal activity against trypomastigote form of Trypanosoma cruzi Y infected in Swiss mouse assessed as reduction in parasitemia at 100 mg/kg, po administered via gavage for 7 days from day 5 post-infection. Type of data set: functional. Conditions: 168 h, time 7 day.

Chain of Cruzipain (Trypanosoma cruzi) (P25779 123-467 limits assumed): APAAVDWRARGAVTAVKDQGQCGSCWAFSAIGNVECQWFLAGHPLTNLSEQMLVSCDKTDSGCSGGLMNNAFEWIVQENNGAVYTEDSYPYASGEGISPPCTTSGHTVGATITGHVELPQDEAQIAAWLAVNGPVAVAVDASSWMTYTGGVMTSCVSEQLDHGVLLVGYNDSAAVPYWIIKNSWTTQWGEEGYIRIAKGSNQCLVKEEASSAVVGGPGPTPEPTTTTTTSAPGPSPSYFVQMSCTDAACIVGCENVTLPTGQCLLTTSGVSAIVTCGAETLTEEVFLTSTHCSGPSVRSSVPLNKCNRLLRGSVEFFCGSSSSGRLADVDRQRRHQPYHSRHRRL

As for `CCCc1ccc(OCC(O)Cn2cc(COc3ccc([N+](=O)[O-])cc3)nn2)c(OC)c1` (racemic), the values for the IC50 in the data set on Trypanosoma cruzi [1] and in the data set on Trypanosoma cruzi [4] were 7.3 µM and 8.41 µM, respectively. Besides, the IC50 (usually the concentration needed to halve the response being measured) at 72 h in data set [2] was found to be 568 µM. Also, in data set [3], the selectivity ratio worked out at 77.6. In addition, the inhibition in data set [5] and in data set [6] was 24% each time. The Activity entry in data set [7] was “Non-Toxic”; in [8], “Non-Toxic”; in data set [9], “Non-Toxic”; in [10], “Non-Toxic”; in [11], “Toxic”; in data set [12] it was “Non-Toxic”. Besides, the Activity result in [13], in data set [14] and in [23] was “Non-Toxic” in each case. Further, the outcome in the data set on Trypanosoma cruzi [15] was Active. The inhibition result in the data set on Mus musculus [16], with Mus musculus [18], in the data set with Mus musculus [19] and in the data set with Mus musculus [20] was “Active” in each case. In addition, the inhibition result in the data set with Mus musculus [17], with Mus musculus [21] and in the data set on Mus musculus [22] was “inactive” in each case. Further, the inhibition in vivo (usually the relative decrease from the control value, in per cent) at 100 mg/kg in the data set on Trypanosoma cruzi [24] worked out at 99.4%.
